US20230000842A1, “METHODS OF TREATING CARTILAGE DISORDERS THROUGH INHIBITION OF CLK AND DYRK” (SAMUMED, LLC, priority 2019, published 2023)

How the values were obtained:
CLK2 kinase = CLK2 kinase (Homo sapiens, UniProt P49760); assay: CLK2 kinase activity assay (Z-lyte FRET); type: biochemical; details: Z-lyte Ser/Thr 6 peptide, 60 μM ATP, 1 h at room temperature;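 note: FRET read-out as coumarin to fluorescein emission ratio, unphosphorylated peptide as 0% and phosphorylated peptide as 100% controls, duplicate reactions, non-linear regression fit of dose-response curves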
Chain of CLK2 kinase (P49760 whole entry): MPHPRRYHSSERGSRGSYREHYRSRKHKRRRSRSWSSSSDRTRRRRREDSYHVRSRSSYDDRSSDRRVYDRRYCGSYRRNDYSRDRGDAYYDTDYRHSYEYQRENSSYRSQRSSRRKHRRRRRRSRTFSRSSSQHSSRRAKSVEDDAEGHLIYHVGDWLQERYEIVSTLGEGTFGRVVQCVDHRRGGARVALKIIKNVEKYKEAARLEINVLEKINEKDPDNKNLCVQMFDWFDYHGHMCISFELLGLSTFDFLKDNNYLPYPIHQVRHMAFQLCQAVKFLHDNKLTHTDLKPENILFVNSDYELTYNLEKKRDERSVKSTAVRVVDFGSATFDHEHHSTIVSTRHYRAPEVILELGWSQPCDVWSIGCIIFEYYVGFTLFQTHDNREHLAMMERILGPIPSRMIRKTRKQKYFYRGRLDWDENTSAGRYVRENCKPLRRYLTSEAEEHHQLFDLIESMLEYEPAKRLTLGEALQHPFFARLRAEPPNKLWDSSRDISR

CLK3 kinase = CLK3 kinase (Homo sapiens, UniProt P49761); assay: CLK3 kinase activity assay (Z-lyte FRET); type: biochemical; details: Z-lyte Ser/Thr 18 peptide, 156 μM ATP, 1 h at room temperature;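 note: kinase activity read as coumarin/fluorescein emission ratio by FRET, unphosphorylated peptide as 0% and phosphorylated peptide as 100% control, values from non-linear regression of dose-response curves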
Chain of CLK3 kinase (P49761 whole entry): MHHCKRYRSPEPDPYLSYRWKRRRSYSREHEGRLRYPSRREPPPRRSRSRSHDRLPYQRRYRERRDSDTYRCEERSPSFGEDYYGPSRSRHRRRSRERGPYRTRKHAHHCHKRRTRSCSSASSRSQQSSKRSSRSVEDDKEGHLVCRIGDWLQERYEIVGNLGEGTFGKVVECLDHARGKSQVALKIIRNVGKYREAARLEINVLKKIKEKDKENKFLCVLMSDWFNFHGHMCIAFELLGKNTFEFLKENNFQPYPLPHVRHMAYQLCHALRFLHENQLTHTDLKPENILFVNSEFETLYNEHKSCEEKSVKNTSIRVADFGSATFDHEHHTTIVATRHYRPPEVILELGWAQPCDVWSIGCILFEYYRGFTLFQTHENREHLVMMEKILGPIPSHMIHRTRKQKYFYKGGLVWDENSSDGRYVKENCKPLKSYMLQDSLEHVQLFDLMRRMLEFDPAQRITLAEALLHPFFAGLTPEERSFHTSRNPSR

[1] = system: primary human mesenchymal stem cells (hMSCs); assay: Chondrogenesis screening using primary human mesenchymal stem cells; type: cell-based; details: Homo sapiens, Mesenchymal stem cells, hMSC chondrogenesis; for Emax: maximum activity relative to TGF-β3 (10 ng/mL) positive control, read-out: Max. Activity as % TGF-β3 activity; for EC50: concentration required to induce 50% levels of chondrogenesis with TGF-β3 as positive control, read-out: Conc (nM) of 50% TGF-β3 activity
Procedure, shortened: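 Primary hMSCs at passage 3–6 were treated across compound concentrations, with TGF-β3 as positive control. Chondrogenic nodule area per well was normalized to 3 DMSO wells on the same plate (fold over DMSO, 2–3 replicates). EC50, maximum activity and the dose reaching it were derived.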

[2] = system: Wnt pathway activity (SW480 colon carcinoma cells stably expressing the Sp5-Luc reporter); assay: Wnt pathway activity screening assay (Sp5-Luc reporter gene assay); details: Homo sapiens, SW480, Table 4; SW480 cells stably expressing Sp5-Luc reporter, 10-point dose-response from 10 μM, 36 to 48 hours
Description: The screening assay for Wnt pathway activity is described as follows.
SW480 colon carcinoma cells were transduced with a lentiviral vector expressing luciferase with a human Sp5 promoter consisting of a sequence of eight TCF/LEF binding sites. […] These stably transduced SW480 cells were expanded in cell culture and used for all further screening activities. Each compound was dissolved in DMSO as a 10 mM stock and used to prepare compound source plates. Serial dilution (1:3, 10-point dose-response curves starting from 10 μM) and compound transfer was performed using the ECHO 550 (Labcyte, Sunnyvale, Calif.) into 384-well white solid bottom assay plates (Greiner Bio-One) with appropriate DMSO backfill for a final DMSO concentration of 0.1%. […] Following incubation, 15 μl of BriteLite Plus luminescence reagent (Perkin Elmer) was added to each well of the 384-well assay plates. The plates were placed on an orbital shaker for 2 min and then luminescence was quantified using the Envision (Perkin Elmer) plate reader.

| SMILES | EC50 (CLK2 kinase) | EC50 (CLK3 kinase) | EC50 [2] | EC50 [1] | Emax [1] |
| --- | --- | --- | --- | --- | --- |
| c1cncc(-c2ccc3[nH]nc(-c4nc5c(-c6cccnc6)cncc5[nH]4)c3c2)c1 [compound 178] | 5 nM | 207 nM | 35 nM | 30 nM | 159% |
| c1cncc(-c2cc3c(-c4nc5c(-c6cccnc6)cccc5[nH]4)n[nH]c3cn2)c1 [compound 179] | 11 nM | 969 nM | 92.4 nM | 100 nM | 93% |
| c1cncc(-c2ccc3[nH]nc(-c4nc5c(-c6cccnc6)cccc5[nH]4)c3n2)c1 [compound 180] | 2 nM | 296 nM | 1120 nM | 30 nM | 57.8% |
| CC(C)C(=O)Nc1cncc(-c2ccc3[nH]nc(-c4nc5c(-c6cccnc6)cncc5[nH]4)c3c2)c1 [compound 186] | 4 nM | 37 nM | 5.1 nM |  | 34.4% |
| CC(C)C(=O)Nc1cncc(-c2ccc3[nH]nc(-c4nc5c(-c6cccnc6)ccnc5[nH]4)c3n2)c1 [compound 187] | 2 nM | 132 nM | > 10000 nM |  | 26.1% |
| O=C(Nc1cncc(-c2cnc3[nH]nc(-c4nc5c(-c6cccnc6)cncc5[nH]4)c3c2)c1)C1CC1 [compound 190] | 5 nM | 39 nM | 23.3 nM |  | 86.3% |
| O=C(Nc1cncc(-c2cnc3[nH]nc(-c4nc5c(-c6cccnc6)cncc5[nH]4)c3c2)c1)C1CCC1 [compound 191] | 3 nM | 49 nM | 35.4 nM | 300 nM | 130% |
| CC(C)Nc1cncc(-c2ccc3[nH]nc(-c4nc5c(-c6cccnc6)nccc5[nH]4)c3n2)c1 [compound 193] | 2 nM | 322 nM | 981 nM | 10 nM | 54.4% |
| CC(C)Nc1cncc(-c2ccc3[nH]nc(-c4nc5c(-c6cccnc6)ccnc5[nH]4)c3n2)c1 [compound 195] | 1 nM | 280 nM | 1750 nM | 10 nM | 114% |

More lines, main results first:

| EC50 (CLK2 kinase) | EC50 (CLK3 kinase) | EC50 [2] | EC50 [1] | SMILES | Emax [1] |
| --- | --- | --- | --- | --- | --- |
| 6 nM | 209 nM | 1 nM |  | CC(C)Nc1cncc(-c2ccc3[nH]nc(-c4nc5c(-c6ccccc6F)cncc5[nH]4)c3c2)c1 [compound 177] | 56.8% |
| 15 nM | 17 nM | > 10000 nM |  | c1cncc(-c2cnc3[nH]nc(-c4nc5c(-c6cccnc6)cncc5[nH]4)c3c2)c1 [compound 181] | 62.9% |
| 11 nM | 9840 nM | 28.3 nM |  | c1cncc(-c2cc3c(-c4nc5c(-c6cccnc6)nccc5[nH]4)n[nH]c3cn2)c1 [compound 182] | 44.5% |
| 1 nM | 105 nM | > 10000 nM | 100 nM | c1cncc(-c2ccc3[nH]nc(-c4nc5c(-c6cccnc6)nccc5[nH]4)c3n2)c1 [compound 183] | 70% |
| 1 nM | 177 nM | > 10000 nM | 30 nM | c1cncc(-c2ccc3[nH]nc(-c4nc5c(-c6cccnc6)cncc5[nH]4)c3n2)c1 [compound 184] | 83.8% |
| 1 nM | 308 nM | 1510 nM | 300 nM | c1cncc(-c2ccc3[nH]nc(-c4nc5c(-c6cccnc6)ccnc5[nH]4)c3n2)c1 [compound 185] | 94.6% |
| 2 nM | 213 nM | 1270 nM | 30 nM | CC(C)Nc1cncc(-c2ccc3[nH]nc(-c4nc5c(-c6cccnc6)cncc5[nH]4)c3n2)c1 [compound 194] | 64.6% |
| 5 nM | 995 nM | 999 nM |  | CCCC(=O)Nc1cncc(-c2ccc3[nH]nc(-c4nc5c(-c6ccncc6)cncc5[nH]4)c3n2)c1 [compound 196] | 31% |
